In PubChem BioAssay (NCI):
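Growth conditions: 96-well plates. Treatment: test compound, 48 hours, 5 concentrations. Analysis: linear interpolation between bracketing concentrations; unreached endpoints set to highest concentration. At the GI50, growth is halved. TGI is the concentration that stops growth completely.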

Legend:
Test in all cases: DTP human tumour cell line panel, 48 h
TK-10 renal = tested on: TK-10 renal
HT29 colon = tested on: HT29 colon
SW-620 colon = tested on: SW-620 colon
UO-31 renal = tested on: UO-31 renal
786-0 renal = tested on: 786-0 renal
A549 NSCLC = tested on: A549 NSCLC
SNB-75 CNS = tested on: SNB-75 CNS
OVCAR-4 ovarian = tested on: OVCAR-4 ovarian
OVCAR-3 ovarian = tested on: OVCAR-3 ovarian
NCI/ADR-RES ovarian = tested on: NCI/ADR-RES ovarian
PC-3 prostate = tested on: PC-3 prostate
HS 578T breast = tested on: HS 578T breast
MDA-MB-435 = tested on: MDA-MB-435
MALME-3M melanoma = tested on: MALME-3M melanoma

| Structure (SMILES) | TGI (TK-10 renal) [µM] | TGI (HT29 colon) [µM] | TGI (SW-620 colon) [µM] | TGI (UO-31 renal) [µM] | TGI (786-0 renal) [µM] | TGI (A549 NSCLC) [µM] | TGI (SNB-75 CNS) [µM] | TGI (OVCAR-4 ovarian) [µM] | TGI (OVCAR-3 ovarian) [µM] | TGI (NCI/ADR-RES ovarian) [µM] | TGI (PC-3 prostate) [µM] | TGI (HS 578T breast) [µM] | TGI (MDA-MB-435) [µM] | TGI (MALME-3M melanoma) [µM] | GI50 (MALME-3M melanoma) [µM] | GI50 (SW-620 colon) [µM] | GI50 (SNB-75 CNS) [µM] | GI50 (OVCAR-4 ovarian) [µM] |
| --- | --- | --- | --- | --- | --- | --- | --- | --- | --- | --- | --- | --- | --- | --- | --- | --- | --- | --- |
| CC(C)C1C(=O)NC(CO)Cc2c[nH]c3c(C(c4c[nH]c5ccccc45)C(O)CO)ccc(c23)N1C (centres undefined) | > 100 | > 100 | > 100 | > 100 | > 100 | > 100 | > 100 | > 100 | > 100 | – | – | – | – | – | – | – | – | – |
| O=C1CCCC2=C1CC1=C(CCCC1=O)N2c1ccccc1C(=O)O | > 100 | > 100 | > 100 | > 100 | > 100 | > 100 | > 100 | > 100 | > 100 | > 100 | > 100 | > 100 | – | – | – | – | – | – |
| Cc1ccc2c3c(cnc2n1)C(=O)OCCN3C | > 100 | > 100 | > 100 | > 100 | > 100 | > 100 | – | > 100 | > 100 | > 100 | > 100 | > 100 | > 100 | – | – | – | – | – |
| CC(C)N(C(=O)C1(C)CC1)C(C)C | – | > 100 | > 100 | > 100 | > 100 | > 100 | > 100 | > 100 | > 100 | – | – | – | – | > 100 | – | – | – | – |
| CC1=C(C)CC(C#N)(C#N)C(C#N)(C#N)C1 | > 8.75 | > 10 | > 5.42 | > 10 | > 8.08 | > 10 | > 10 | > 10 | 9.68 | > 10 | > 10 | > 10 | – | > 10 | – | – | – | – |
| Cc1ccc2[nH]c3c(C)c4c(c(C)c3c2c1)CN(C)C=C4 | 21.9 | 11.2 | 3 | 19.5 | 10.5 | 2.99 | 2.27 | 6.76 | 14.8 | – | – | – | – | 4.58 | 1.72 | – | – | – |
| O=c1c(-c2ccccc2)c2oc(c1-c1ccccc1)CS(=O)(=O)CCC2 | > 100 | 75.8 | > 100 | – | 44.1 | > 100 | – | – | 73 | – | – | – | – | > 100 | – | – | – | – |
| O=C(Nc1cc2c(=O)[nH]c3ccccc3c2oc1=O)c1cnccn1 | > 100 | > 100 | > 100 | > 100 | > 100 | > 100 | > 100 | > 100 | > 100 | > 100 | > 100 | – | > 100 | > 100 | – | – | – | – |
| COc1ccc(/C=C/C(=O)C(C)(C)CN2CCCCC2)cc1 | 53.4 | 33 | 14.2 | 41.3 | 29.9 | 74.3 | 47.1 | 22.1 | 34.5 | – | – | – | – | 79.8 | – | – | – | – |
| CC(=O)NC(CCCCN(Cc1ccccc1)C(=O)NCCCl)C(=O)NCc1ccccc1 (centres undefined) | – | > 100 | > 100 | > 100 | > 100 | > 100 | > 100 | > 100 | > 100 | – | – | – | – | > 100 | – | – | – | – |
| O=C(CSc1nnc(Cc2ccccc2)o1)Nc1cccc(Cl)c1 | > 100 | > 100 | > 100 | > 100 | > 100 | > 100 | 89.5 | > 100 | > 100 | – | – | – | – | > 100 | – | – | – | – |
| CC1=[N+]([O-])C(C)(C)N(N=O)C1(C)C | > 10 | > 10 | > 10 | > 10 | > 10 | > 10 | – | > 10 | > 10 | > 10 | > 10 | – | > 10 | > 10 | – | – | – | – |
| COc1ccc(N=Nc2c(C)c(C#N)c(=S)n(C3OC(COC(C)=O)C(OC(C)=O)C(OC(C)=O)C3OC(C)=O)c2C)cc1 (centres undefined) | > 100 | > 100 | > 100 | > 100 | 53 | > 100 | 42.6 | > 100 | > 100 | > 100 | > 100 | 82 | – | > 100 | – | – | – | – |
| COc1ccc(/C=N/N=C(\N)NO)c(Cl)c1O | – | – | > 100 | 54.1 | > 100 | 49.6 | – | > 100 | > 100 | – | – | – | – | > 100 | – | – | – | – |
| COc1cc(OC)c2ssc3c(OC)cc(OC)c4ssc1c2-c43 | > 100 | > 100 | > 100 | – | > 100 | > 100 | > 100 | > 100 | > 100 | – | – | – | – | > 100 | – | – | – | – |
| CC(C)(C)OC(=O)[C@@H]1CCC(=S)N1Cc1ccccc1 | > 100 | – | > 100 | > 100 | > 100 | > 100 | > 100 | > 100 | > 100 | > 100 | > 100 | – | > 100 | > 100 | – | – | – | – |
| O=C(/C=C/c1ccc(O)c(O)c1)OC1C[C@@](O)(C(=O)O)C[C@@H](O)[C@H]1OC(=O)/C=C/c1ccc(O)c(O)c1 (some centres undefined) | > 100 | > 100 | > 100 | > 100 | > 100 | > 100 | – | > 100 | > 100 | – | – | – | – | > 100 | – | – | – | – |
| COc1c(C)c2c(c3c1c(=O)c1ccccc1n3C)C=CC(C)(C)O2 | > 100 | 81.5 | > 100 | 66 | 69.8 | 26.7 | 62.8 | – | 41 | – | – | – | – | 56.7 | – | – | – | – |
| O=c1cc(-c2ccccc2)oc2cc(OCC(O)COc3ccc4c(=O)cc(-c5ccccc5)oc4c3)ccc12 | > 100 | > 100 | > 100 | > 100 | 52 | > 100 | – | – | > 100 | – | – | – | – | > 100 | – | – | – | – |
| C1=Nc2ccc(cc2)N=Cc2ccccc2OCc2cccc(n2)COc2ccccc21 | > 100 | > 100 | > 100 | > 100 | > 100 | > 100 | – | > 100 | > 100 | > 100 | > 100 | – | > 100 | > 100 | – | – | – | – |
| CC(/C=C/C(=O)c1sc(-n2nc(-c3ccccc3)cc2-c2ccccc2)nc1C)=C\c1ccccc1 | – | – | > 100 | > 100 | > 100 | > 100 | – | > 100 | > 100 | – | – | – | – | > 100 | – | > 100 | 28.4 | > 100 |
| CCOC(=O)/C(C=Nc1c(C)n(C)n(-c2ccccc2)c1=O)=C(/O)c1ccccc1 | > 100 | > 100 | > 100 | > 100 | > 100 | > 100 | – | > 100 | > 100 | – | > 100 | > 100 | > 100 | > 100 | – | – | – | – |
| CCCCOCn1c(=O)[nH]c(=O)c2ccccc21 | > 100 | > 100 | > 100 | 46.7 | > 100 | > 100 | 82.9 | > 100 | > 100 | > 100 | – | – | > 100 | – | – | – | – | – |
| CCOC(=O)C1(C#N)C(c2ccccc2)CC(O)(c2ccc([N+](=O)[O-])cc2)C(C(=O)c2ccc([N+](=O)[O-])cc2)C1c1ccccc1 (centres undefined) | > 100 | > 100 | > 100 | > 100 | > 100 | > 100 | 96.5 | > 100 | > 100 | – | – | – | – | > 100 | – | – | – | – |
| N#CC1(C#N)NC(c2cccnc2)C(C#N)(C#N)NC1c1cccnc1 (centres undefined) | > 100 | > 100 | > 100 | – | > 100 | > 100 | > 100 | > 100 | > 100 | > 100 | > 100 | – | > 100 | > 100 | – | – | – | – |
| CC(C)(Br)C(Br)CCC(=CCBr)CBr (mixture of isomers) | 22.5 | 9.16 | 7.18 | 27.5 | 3.84 | 28.3 | 10.9 | 17 | – | – | – | 49.7 | 14.1 | 13.5 | – | – | – | – |
| CCOC(=O)C[C@@H](C)[C@]1(C(=O)OC)CCCC1=O | > 100 | > 100 | > 100 | > 100 | > 100 | > 100 | > 100 | > 100 | > 100 | – | – | – | – | > 100 | – | – | – | – |
| c1ccc(N=C(N2CCOCC2)N(CCN2CCOCC2)c2ccccc2)cc1 | > 100 | > 100 | > 100 | > 100 | > 100 | > 100 | > 100 | > 100 | > 100 | – | > 100 | > 100 | > 100 | > 100 | – | – | – | – |
| COc1cc(C2SCC(=O)N2Cc2ccccc2)cc(OC)c1OC (centres undefined) | > 100 | > 100 | > 100 | > 100 | > 100 | > 100 | – | > 100 | > 100 | > 100 | > 100 | > 100 | > 100 | – | – | – | – | – |
| Cc1cc2nc3c(C#N)c(-c4ccccc4)/c(=C\Nc4ccc(Cl)cc4)c(=O)n3c2cc1C | > 100 | – | > 100 | > 100 | > 100 | > 100 | > 100 | > 100 | > 100 | > 100 | > 100 | – | > 100 | > 100 | – | – | – | – |
